Assay results: patent US20230272077A1, “PD-1 SIGNAL INHIBITOR COMBINATION THERAPY” (KYOTO UNIVERSITY, priority 2015, published 2023)
“Also recorded” adds a separate entry of the source.

What was measured:
tumor cells = test: Phenotypic and transcription profile analysis of tumor cells from mice treated with reagent alone; design: species or system mouse; conditions: tumor cells from mice treated with reagent alone in vivo
Source text: FIG. 12. […] After enzymatic digestion, tumor cells were sorted with a cell isolation kit capable of excluding non-tumor cells. The isolated tumor cells were further purified with Aria and used in the following experiments. b) Tumor cells were stained with antibodies targeting PD-L1, MHC class I, CD155 (ligand of TIGIT), and VISTA or with dyes for mitochondrial mass, membrane potential, and superoxide. c) Expression levels of genes associated with mitochondrial energy metabolism and apoptosis were examined using RT^2 profiler PCR Kit.
For analyzing draining lymph nodes, cells from axillary, brachial, and inguinal lymph nodes on the right side of tumor-inoculated mice were harvested and mixed. Averaged cell numbers per one lymph node were used as absolute cell numbers. For tumor analysis, tumor tissues were minced into 2- to 3-mm pieces with scissors and digested with collagenase type IV (Thermo Fisher Scientific) using a gentle MACS Dissociator (Miltenyi Biotec). The numbers of tumor cells per mg were used as absolute numbers. Tumor cells were isolated from digested tumor tissues using a Tumor Cell Isolation Kit, mouse (Miltenyi Biotec). This kit purifies tumor cells by excluding lymphocytes, red blood cells, fibroblasts, endothelial cells and tumor-associated stromal cells. The resultant tumor cell population was further isolated/purified with FACS Aria (BD Biosciences). […]

CD8+ T cells = tested on: CD8+ T cells
Procedure: FIG. 6. […] Draining lymph node (DLN) cells on day 14 were stained with anti-CD8, -CD62L, and -CD44 antibodies, and then CD8^+ T cells were gated. P1 to P3 populations were defined based on the intensities of CD62L and CD44 (Upper). The absolute cell numbers of P1 to P3 in each group were calculated. […] Representative FACS profiles of P1 to P3 (Upper). Representative FACS profiles of the P3 population stained with each mitochondrial dye in each group (Middle). MFI of P1 to P3 stained with each dye was compared between treated groups. Colors correspond to the P1 to P3 populations. […] CD45^+ CD8^+ T cells were gated, and their CD62L and CD44 phenotypes were analyzed (Left). The frequencies of CD8^+ T cells in CD45^+ T cells and the absolute numbers of CD45^+ CD8^+ T cells were compared between groups (Right). Data represent the means±SEM of five mice. *p<0.05, **p<0.01, one-way ANOVA analysis. FACS data are representative of five mice in each group.
For analyzing draining lymph nodes, cells from axillary, brachial, and inguinal lymph nodes on the right side of tumor-inoculated mice were harvested and mixed. Averaged cell numbers per one lymph node were used as absolute cell numbers. For tumor analysis, tumor tissues were minced into 2- to 3-mm pieces with scissors and digested with collagenase type IV (Thermo Fisher Scientific) using a gentle MACS Dissociator (Miltenyi Biotec). The numbers of tumor cells per mg were used as absolute numbers. Tumor cells were isolated from digested tumor tissues using a Tumor Cell Isolation Kit, mouse (Miltenyi Biotec). This kit purifies tumor cells by excluding lymphocytes, red blood cells, fibroblasts, endothelial cells and tumor-associated stromal cells. The resultant tumor cell population was further isolated/purified with FACS Aria (BD Biosciences).
The following antibodies recognizing the indicated antigens were used: CD44 (1M7), CD45.2 (104), CD45.1 (A20), CD8 (53-6.7), CD62L (MEL-14), T-bet (4B/O) and IFN-7 (XMG1.2), MHC class I (AF6-88.5), CD155 (Tx56) and VISTA (MIH63) from BioLegend; p-AMPK (EPR5683) from Ancam; p-mTOR (MRRBY), Eomes (Danllmag) and PD-L1 (M1H5) from eBioscience. All flow cytometry experiments were performed on a FACS Canto II (BD Biosciences) and analyzed using FlowJo software (FLOWJO, LLC). For assessment of intracellular phosphoproteins, cells were permeabilized with 0.5% Triton-X and fixed with 1.5% PFA before staining. Determination of mitochondrial mass, membrane potential, mitochondrial superoxide and cellular ROS was performed using MitoTracker Green, Mito-Tracker Deep Red, MitoSOX Red, and CellROX Green reagents, respectively (all from Life Technologies). […]

N#CC(C#N)=NNc1ccc(OC(F)(F)F)cc1 [FCCP, carbonyl cyanide p-trifluoromethoxyphenylhydrazone]
changes in immune-regulatory surface markers and transcriptional profiles of tumor cells (tumor cells): did not show a significant difference; also recorded: little effect on tumor cells in vivo
mitochondrial membrane potential and ROS in P3 population (CD8+ T cells; MC38-bearing mice, FCCP combined with PD-L1 antibody): significantly augmented
absolute number and proportion of effector CD8+ T cells (CD62L- CD44+, P3) in DLNs (CD8+ T cells; MC38-bearing mice, PD-L1 antibody + FCCP vs anti-PD-L1 antibody alone): significantly increased; also recorded: Increase
numbers of naive T cells (P1) and central memory T cells (P2) in DLNs (CD8+ T cells; MC38-bearing mice, PD-L1 antibody alone, or addition of FCCP): no further increase
toxic effects such as decrease in mitochondrial mass or fall in membrane potential (CD8+ T cells; at the dose used (1.2 mg/kg)): did not have toxic effects
